Assay results taken from the OligoGym collection.
HELM strings list units from the 5' end as sugar, base in round brackets, then linkage (d deoxyribose, r ribose, m 2'-O-methyl, p phosphodiester). Strings are as the collection lists them; they lack the last nucleoside at the 3' end of the tested compound. [moe] = 2'-O-(2-methoxyethyl) (MOE); [sp] = phosphorothioate linkage; [m5C] = 5-methylcytosine

Molecular target: GFAP
Assay: mouse, dose not given
Conditions: ASO

Row | Substance | 3 h FOB score [score 0-7]
1 | RNA1{[moe](G)[sp].[moe]([m5C])p.[moe](T)p.[moe](T)p.d(T)[sp].d(T)[sp].d(G)[sp].d(A)[sp].d(G)[sp].d(A)[sp].d(T)[sp].d(A)[sp].d(T)[sp].d([m5C])[sp].[moe](T)p.[moe](T)p.[moe](G)p.[moe](T)[sp].[moe](G)}$$$$ (last 3' nucleoside missing) | 1
2 | RNA1{[moe](A)[sp].[moe](G)p.[moe]([m5C])p.[moe](A)p.[moe](T)[sp].d(T)[sp].d(T)[sp].d(G)[sp].d(T)[sp].d([m5C])[sp].d(T)[sp].d(T)[sp].d(T)[sp].[moe](A)p.[moe](T)p.[moe](T)[sp].[moe](T)}$$$$ (last 3' nucleoside missing) | 3
3 | RNA1{[moe](G)[sp].[moe](G)p.[moe]([m5C])p.[moe](T)p.[moe](T)[sp].d(T)[sp].d(T)[sp].d(G)[sp].d(A)[sp].d(G)[sp].d(A)[sp].d(T)[sp].d(A)[sp].d(T)[sp].d([m5C])[sp].[moe](T)p.[moe](T)p.[moe](G)[sp].[moe](T)}$$$$ (last 3' nucleoside missing) | 5
4 | RNA1{[moe](G)[sp].[moe]([m5C])p.[moe](T)p.[moe](T)p.[moe](T)p.[moe](T)p.d(G)[sp].d([m5C])[sp].d([m5C])[sp].d([m5C])[sp].d([m5C])[sp].d([m5C])[sp].d(T)[sp].d(G)[sp].d(T)[sp].d(A)[sp].[moe](G)p.[moe](T)[sp].[moe](G)}$$$$ (last 3' nucleoside missing) | 3
5 | RNA1{[moe](T)[sp].[moe](G)p.[moe](G)p.[moe]([m5C])p.[moe](A)p.[moe](G)p.d(T)[sp].d(A)[sp].d(T)[sp].d(T)[sp].d(A)[sp].d([m5C])[sp].d([m5C])[sp].d(T)[sp].d([m5C])[sp].d(T)[sp].[moe](A)p.[moe]([m5C])[sp].[moe](T)}$$$$ (last 3' nucleoside missing) | 0
6 | RNA1{[moe](A)[sp].[moe](T)p.[moe](T)p.[moe](T)p.d(A)[sp].d(T)[sp].d([m5C])[sp].d(T)[sp].d(G)[sp].d(T)[sp].d(G)[sp].d([m5C])[sp].d(T)[sp].d(T)[sp].[moe](T)p.[moe](A)p.[moe](G)p.[moe](T)[sp].[moe](G)}$$$$ (last 3' nucleoside missing) | 2
7 | RNA1{[moe](G)[sp].[moe]([m5C])p.[moe](T)p.[moe](T)p.[moe](T)[sp].d(T)[sp].d(G)[sp].d(A)[sp].d(G)[sp].d(A)[sp].d(T)[sp].d(A)[sp].d(T)[sp].[moe]([m5C])p.[moe](T)p.[moe](T)[sp].[moe](G)}$$$$ (last 3' nucleoside missing) | 3
8 | RNA1{[moe](T)[sp].[moe](G)p.[moe](G)p.[moe]([m5C])p.[moe](A)[sp].d(A)[sp].d([m5C])[sp].d(A)[sp].d(G)[sp].d(T)[sp].d(T)[sp].d(T)[sp].d([m5C])[sp].d([m5C])[sp].d(A)[sp].[moe](T)p.[moe](A)p.[moe](A)[sp].[moe]([m5C])}$$$$ (last 3' nucleoside missing) | 1
9 | RNA1{[moe](G)[sp].[moe]([m5C])p.[moe](A)p.[moe](T)p.[moe](T)[sp].d(T)[sp].d(G)[sp].d(T)[sp].d([m5C])[sp].d(T)[sp].d(T)[sp].d(T)[sp].d(A)[sp].[moe](T)p.[moe](T)p.[moe](T)[sp].[moe](T)}$$$$ (last 3' nucleoside missing) | 1
10 | RNA1{[moe](T)[sp].[moe]([m5C])p.[moe](T)p.[moe](G)p.[moe]([m5C])[sp].d(T)[sp].d([m5C])[sp].d(G)[sp].d(G)[sp].d(G)[sp].d([m5C])[sp].d([m5C])[sp].d([m5C])[sp].d([m5C])[sp].d(T)[sp].[moe]([m5C])p.[moe](A)p.[moe](T)[sp].[moe](G)}$$$$ (last 3' nucleoside missing) | 2
11 | RNA1{[moe](T)[sp].[moe](G)p.[moe](T)p.[moe](G)p.[moe]([m5C])[sp].d(T)[sp].d(T)[sp].d(T)[sp].d(A)[sp].d(G)[sp].d(T)[sp].d(G)[sp].d(A)[sp].d([m5C])[sp].d([m5C])[sp].[moe](T)p.[moe](G)p.[moe](T)[sp].[moe](G)}$$$$ (last 3' nucleoside missing) | 5
12 | RNA1{[moe](G)[sp].[moe](T)p.[moe]([m5C])p.[moe](A)p.d([m5C])[sp].d(A)[sp].d(T)[sp].d(T)[sp].d([m5C])[sp].d(A)[sp].d([m5C])[sp].d(T)[sp].d(A)[sp].d(A)[sp].[moe](T)p.[moe](A)p.[moe](T)p.[moe](T)[sp].[moe](T)}$$$$ (last 3' nucleoside missing) | 0
13 | RNA1{[moe](T)[sp].[moe](T)p.[moe](T)p.[moe](G)p.d(T)[sp].d([m5C])[sp].d(T)[sp].d(T)[sp].d(T)[sp].d(A)[sp].d(T)[sp].d(T)[sp].d(T)[sp].d(T)[sp].[moe](T)p.[moe]([m5C])p.[moe]([m5C])p.[moe](T)[sp].[moe]([m5C])}$$$$ (last 3' nucleoside missing) | 1
14 | RNA1{[moe](G)[sp].[moe](G)p.[moe](T)p.[moe](G)p.[moe](G)[sp].d(G)[sp].d(T)[sp].d(G)[sp].d([m5C])[sp].d([m5C])[sp].d(G)[sp].d(T)[sp].d([m5C])[sp].d(T)[sp].d(G)[sp].[moe](G)p.[moe]([m5C])p.[moe](A)[sp].[moe](G)}$$$$ (last 3' nucleoside missing) | 7
15 | RNA1{[moe](T)[sp].[moe](T)p.[moe](G)p.[moe](T)p.[moe](G)[sp].d(A)[sp].d(T)[sp].d(T)[sp].d(T)[sp].d(T)[sp].d([m5C])[sp].d([m5C])[sp].d([m5C])[sp].[moe]([m5C])p.[moe](G)p.[moe](T)[sp].[moe]([m5C])}$$$$ (last 3' nucleoside missing) | 2
16 | RNA1{[moe]([m5C])[sp].[moe](A)p.[moe](T)p.[moe](T)p.[moe](T)[sp].d(G)[sp].d(T)[sp].d([m5C])[sp].d(T)[sp].d(T)[sp].d(T)[sp].d(A)[sp].d(T)[sp].[moe](T)p.[moe](T)p.[moe](T)[sp].[moe](T)}$$$$ (last 3' nucleoside missing) | 0
17 | RNA1{[moe](T)[sp].[moe](G)p.[moe](T)p.[moe](G)p.[moe](T)[sp].d(A)[sp].d(T)[sp].d(T)[sp].d(A)[sp].d(G)[sp].d(G)[sp].d(A)[sp].d(T)[sp].[moe]([m5C])p.[moe]([m5C])p.[moe]([m5C])[sp].[moe](A)}$$$$ (last 3' nucleoside missing) | 4
18 | RNA1{[moe]([m5C])[sp].[moe]([m5C])p.[moe](A)p.[moe](T)p.[moe](T)[sp].d(T)[sp].d(A)[sp].d(T)[sp].d([m5C])[sp].d(T)[sp].d(G)[sp].d(T)[sp].d(G)[sp].d([m5C])[sp].d(T)[sp].[moe](T)p.[moe](T)p.[moe](A)[sp].[moe](G)}$$$$ (last 3' nucleoside missing) | 6
19 | RNA1{[moe](G)[sp].[moe](A)p.[moe](G)p.[moe](A)p.[moe](T)[sp].d(A)[sp].d(T)[sp].d([m5C])[sp].d(T)[sp].d(T)[sp].d(G)[sp].d(T)[sp].d(G)[sp].[moe](A)p.[moe]([m5C])p.[moe]([m5C])[sp].[moe](T)}$$$$ (last 3' nucleoside missing) | 4
20 | RNA1{[moe](T)[sp].[moe](T)p.[moe](G)p.[moe](T)p.[moe](G)p.[moe](A)p.d(T)[sp].d(T)[sp].d(T)[sp].d(T)[sp].d([m5C])[sp].d([m5C])[sp].d([m5C])[sp].d([m5C])[sp].d(G)[sp].d(T)[sp].[moe]([m5C])p.[moe](T)[sp].[moe](T)}$$$$ (last 3' nucleoside missing) | 4
21 | RNA1{[moe](G)[sp].[moe](T)p.[moe](G)p.[moe](T)p.[moe](A)[sp].d(T)[sp].d(T)[sp].d(A)[sp].d(G)[sp].d(G)[sp].d(A)[sp].d(T)[sp].d([m5C])[sp].d([m5C])[sp].d([m5C])[sp].[moe](A)p.[moe](T)p.[moe]([m5C])[sp].[moe](T)}$$$$ (last 3' nucleoside missing) | 4
22 | RNA1{[moe]([m5C])[sp].[moe](G)p.[moe](T)p.[moe]([m5C])p.[moe](A)[sp].d([m5C])[sp].d(A)[sp].d(T)[sp].d(T)[sp].d([m5C])[sp].d(A)[sp].d([m5C])[sp].d(T)[sp].[moe](A)p.[moe](A)p.[moe](T)[sp].[moe](A)}$$$$ (last 3' nucleoside missing) | 0
23 | RNA1{[moe](G)[sp].[moe]([m5C])p.[moe](A)p.[moe]([m5C])p.[moe](A)p.[moe](G)p.d(T)[sp].d(T)[sp].d([m5C])[sp].d([m5C])[sp].d([m5C])[sp].d(A)[sp].d(G)[sp].d(A)[sp].d(T)[sp].d(A)[sp].[moe]([m5C])p.[moe](T)[sp].[moe]([m5C])}$$$$ (last 3' nucleoside missing) | 0
24 | RNA1{[moe]([m5C])[sp].[moe](A)p.[moe]([m5C])p.[moe](G)p.d(T)[sp].d([m5C])[sp].d(A)[sp].d([m5C])[sp].d(A)[sp].d(T)[sp].d(T)[sp].d([m5C])[sp].d(A)[sp].d([m5C])[sp].[moe](T)p.[moe](A)p.[moe](A)p.[moe](T)[sp].[moe](A)}$$$$ (last 3' nucleoside missing) | 0
25 | RNA1{[moe](G)[sp].[moe]([m5C])p.[moe](A)p.[moe]([m5C])p.[moe](A)[sp].d(G)[sp].d(T)[sp].d(T)[sp].d([m5C])[sp].d([m5C])[sp].d([m5C])[sp].d(A)[sp].d(G)[sp].d(A)[sp].d(T)[sp].[moe](A)p.[moe]([m5C])p.[moe](T)[sp].[moe]([m5C])}$$$$ (last 3' nucleoside missing) | 0
26 | RNA1{[moe](T)[sp].[moe](T)p.[moe](T)p.[moe](G)p.[moe](G)p.[moe]([m5C])p.d(A)[sp].d(G)[sp].d(T)[sp].d(A)[sp].d(T)[sp].d(T)[sp].d(A)[sp].d([m5C])[sp].d([m5C])[sp].d(T)[sp].[moe]([m5C])p.[moe](T)[sp].[moe](A)}$$$$ (last 3' nucleoside missing) | 0
27 | RNA1{[moe]([m5C])[sp].[moe](A)p.[moe](G)p.[moe]([m5C])p.[moe](A)[sp].d(T)[sp].d(T)[sp].d(T)[sp].d(G)[sp].d(T)[sp].d([m5C])[sp].d(T)[sp].d(T)[sp].[moe](T)p.[moe](A)p.[moe](T)[sp].[moe](T)}$$$$ (last 3' nucleoside missing) | 3
